Earlier results, collected in patent publication US10022349B2, “Cadotril particles” (Johnson & Johnson Consumer Inc., priority 2014, dated 2018).

Assays:
[1] = poor aqueous solubility, dissolution rate limited absorption

| solubility in water (in words) | water solubility (room temperature) | Biopharmaceutical Classification System class [1] | SMILES |
| --- | --- | --- | --- |
| insoluble in water |  |  | CC(=O)SC[C@H](Cc1ccccc1)C(=O)NCC(=O)OCc1ccccc1 [dexecadotril, N—[(R)-2-Benzyl-3-(acetylthio)propionyl]glycine benzyl ester] |
| insoluble in water | about 10 micrograms/ml | class II | CC(=O)SCC(Cc1ccccc1)C(=O)NCC(=O)OCc1ccccc1 (racemic) [Racecadotril, (RS)-benzyl N-[3-(acetylthio)-2-benzylpropanoyl]glycinate] |
| insoluble in water |  |  | CC(=O)SC[C@@H](Cc1ccccc1)C(=O)NCC(=O)OCc1ccccc1 [ecadotril, N—[(S)-2-[(Acetylthio)methyl]-1-oxo-3-phenylpropyl]glycinebenzyl ester] |
